Source: patent US7935506B2, “Method for producing a lower alkyl ester of α-L-aspartyl-L-phenylalanine” (priority 2001, dated 2011)

Assays:
Assay type in all cases: cell-based
Settings in all cases: 37° C.
[1] = system: E. coli strain TG1 (pUC19); assay: Growth on M9 glucose minimal agar plates containing inhibitor, strain TG1 (pUC19)
Procedure: (§1) The pYDDG1 and pYDDG2 plasmids and the pUC19 and pAYCTER3 vectors were introduced into E. coli strain TG1. Thus the strains TG1 (pYDDG1), TG1 (pYDDG2), TG1 (pUC19) and TG1 (pAYCTER3) were obtained.
(§2) Then the ability of these strains to grow in the presence of amino acids and amino acid analogues for each strain were determined on M9 glucose minimal agar plates containing graded concentrations of inhibitor. The plates were spotted with 10^6 to 10^7 cells from an overnight culture grown in a minimal medium (supplemented with 100 μg/ml of ampicillin for plasmid strains). The growth was estimated after 44 h incubation at 37° C.

[2] = system: E. coli strain TG1 (pYDDG1); assay: Growth on M9 glucose minimal agar plates containing inhibitor, strain TG1 (pYDDG1)
Procedure: as §1, §2

[3] = system: E. coli strain TG1 (pYDDG2); assay: Growth on M9 glucose minimal agar plates containing inhibitor, strain TG1 (pYDDG2)
Procedure: as §1, §2
Also: key: +: good growth; ±: pour growth; −: no growth.

Compound: NC(Cc1c[nH]c2ccc(F)cc12)C(=O)O (racemic) [5-fluoro-DL-tryptophane]
- Growth after 44 h TG1 (pUC19) ([1]; substrate 0.0005 mg/ml): −
- Growth after 44 h TG1 (pYDDG1) ([2]; substrate 0.0005 mg/ml): +

Compound: NC(Cc1ccc(F)cc1)C(=O)O (racemic) [p-fluoro-DL-phenylalanine]
- Growth after 44 h TG1 (pUC19) ([1]; substrate 1.0 mg/ml): −
- Growth after 44 h TG1 (pUC19) ([1]; substrate 2.0 mg/ml): −
- Growth after 44 h TG1 (pYDDG2) ([3]; substrate 1.0 mg/ml): +
- Growth after 44 h TG1 (pYDDG2) ([3]; substrate 2.0 mg/ml): −
- Growth after 44 h TG1 (pYDDG1) ([2]; substrate 1.0 mg/ml): +
- Growth after 44 h TG1 (pYDDG1) ([2]; substrate 2.0 mg/ml): +

Compound: N[C@@H](Cc1ccccc1)C(=O)O [L-phenylalanine]
- Growth after 44 h TG1 (pUC19) ([1]; substrate 20.0 mg/ml): −
- Growth after 44 h TG1 (pYDDG2) ([3]; substrate 20.0 mg/ml): ±
- Growth after 44 h TG1 (pYDDG1) ([2]; substrate 20.0 mg/ml): +
